Test results published in patent US20020147196A1, “Composition and method for treating neuropathic pain” (priority 2001, published 2002).

Legend:
Assay type in all cases: in vivo, rat
[1] = test system: CCI-induced tactile allodynia; assay: CCI model of neuropathic pain: mechanical (tactile) allodynia assessed with Von Frey hair monofilaments
Procedure: (§1) All experiments were performed using the chronic constriction injury (CCI) model of neuropathic pain in the rat. Under isoflurane anaesthesia, the common left sciatic nerve of male random hooded rats (180-220 g) was exposed at mid thigh level. Four ligatures of chromic gut (4.0) were tied loosely around the nerve with a 1 mm spacing between each. The wound was then closed and secured with suture clips. The surgical procedure was identical for the sham operated animals except the sciatic nerve was not ligated. The animals were allowed a period of 10 days to recover from the surgery before any behavioural testing began. The effect of the test compound on CCI-induced decrease in mechanical paw withdrawal threshold was measured using an algesymeter (Randall & Selitto, 1957). The presence of mechanical allodynia was assessed using Von Frey hair mono filaments (range: 4.19-84.96 g). The rats were lightly restrained and placed upon a metal grid floor, from below which the monofilaments were applied to the plantar surface of the hindpaws. The lowest monofilament to produce a withdrawal was the response recorded.
(§2) All data were expressed as mean±s.e.mean. Statistical analysis was carried out to compare the difference between the drug treated group and vehicle treated groups using unpaired Student's t-test (P<0.05 considered significant).

[2] = observation of adverse side effects during chronic dosing in the CCI experiments
Procedure: Lamotrigine (30 mgkg^−1 b.i.d. p.o.) was dosed chronically for a period of 12 days. The dose chosen was determined from previous “in-house” data and doses believed to be efficacious in the clinical treatment of neuropathic pain.
Bupropion (10 mgkg^−1 b.i.d. p.o.) was dosed chronically for a period of 8 days. The dose chosen reflects both previous “in-house” data and that which is believed to be efficacious in the clinical treatment of neuropathic pain.

[3] = test system: CCI-induced decrease in mechanical paw withdrawal threshold; assay: chronic constriction injury (CCI) model of neuropathic pain: mechanical paw withdrawal threshold measured with an algesymeter; details: for known minimum effective dose in the CCI model: b.i.d. p.o., shown previously to have efficacy in the CCI model
Procedure: as §1, §2

[4] = bupropion 10 mgkg^−1 b.i.d. p.o., days 47-54

Question: With `CC(NC(C)(C)C)C(=O)c1cccc(Cl)c1` (stereo not shown) [bupropion] as the compound, how does the “reversal of tactile allodynia following cessation of treatment” value ([1]; bupropion 10 mgkg^−1 b.i.d. p.o., after cessation) read?
Answer: not maintained

Question: And the “effect on tactile allodynia (Von Frey hair withdrawal threshold) during chronic dosing” value [1, 4]?
Answer: some effect

Question: And the “day of maximal reversal of tactile allodynia” value ([1]; bupropion 10 mgkg^−1 b.i.d. p.o., days 47-54, last day of dosing)?
Answer: 54 days

Question: What about the “adverse side effects as a result of the surgery or chronic dosing schedule” value ([2]; bupropion 10 mgkg^−1 b.i.d. p.o. for 8 days) of the same compound?
Answer: No adverse side effects were observed

Question: What about the “known minimum effective dose in the CCI model” value [3] of the same compound?
Answer: 10 mgkg^−1

Question: What about the “effect on paw withdrawal thresholds in sham-operated rats” value ([3]; bupropion 10 mgkg^−1, first day of dosing only, 1 hour post dose, sham-operated rats) of the same compound?
Answer: small effect

Question: And the “reversal of the fall in paw withdrawal threshold back towards sham-operated levels after a single dose” value ([3]; bupropion 10 mgkg^−1, single dose)?
Answer: immediate reversal

Question: What about the “reversal of paw withdrawal threshold during the chronic dosing period” value [3, 4] of the same compound?
Answer: maintained throughout the chronic dosing period

Question: What about the “time the reversal of paw withdrawal threshold was maintained following cessation of treatment” value [3, 4] of the same compound?
Answer: 4 days

Question: For `Nc1nnc(-c2cccc(Cl)c2Cl)c(N)n1` [lamotrigine], which “effect on CCI-induced tactile allodynia (Von Frey hair withdrawal threshold) during chronic dosing” value ([1]; lamotrigine 30 mgkg^−1 b.i.d. p.o.) is on record?
Answer: transient reversal

Question: What about the “effect on tactile allodynia following cessation of treatment, compared to vehicle treated group” value ([1]; lamotrigine 30 mgkg^−1 b.i.d. p.o., after cessation) of the same compound?
Answer: small reversal

Question: And the “adverse side effects as a result of the surgery or chronic dosing schedule” value ([2]; lamotrigine 30 mgkg^−1 b.i.d. p.o. for 12 days)?
Answer: No adverse side effects were observed

Question: What about the “known minimum effective dose in the CCI model” value [3] of the same compound?
Answer: 10 mgkg^−1

Question: And the “reversal of the CCI-induced decrease in paw-withdrawal threshold to that of sham-operated animals” value ([3]; lamotrigine 30 mgkg^−1 twice daily p.o., days 13-24 post-operative)?
Answer: fully reversed

Question: And the “post-operative day until which the analgesic effect was maintained following cessation of treatment” value ([3]; lamotrigine 30 mgkg^−1 twice daily p.o., dosing ended day 24)?
Answer: 37 day post-operative

Question: What about the “post-operative day by which the decrease in paw-withdrawal threshold was fully reversed” value ([3]; lamotrigine 30 mgkg^−1 twice daily p.o., dosing from day 13 post-operative) of the same compound?
Answer: ≤ 16 days
